How the values were obtained:
primary tumor growth = assay: Docetaxel combined with anti-mouse CSF-1R antibody (separate experiment); type: in vivo
Method: Docetaxel was administered 3 times weekly as 1 cycle followed by 3 weeks drug holiday.

MC38 colon carcinoma = assay: Tumor growth inhibition with chemotherapy or cancer immunotherapy combinations in subcutaneous syngeneic MC38 colon carcinoma model; type: in vivo, C57BL/6N mice; details: for TCR (day 21) / TGI (day 21): compared to control antibody; for TGI (day 21): antibody 30 mg/kg i.p. weekly; for Median time to progression TV > 700 mm3: mouse, in vivo
From the text: Inhibition of Tumor Growth Under Treatment with Anti-CSF-1R Monoclonal Antibody in Combination with Chemotherapy or Cancer Immunotherapy in Subcutaneous Syngeneic MC38 Colon Carcinoma Models

| Compound | npTCR (primary tumor growth; after 2 cycles of docetaxel) | TGI (primary tumor growth; after 2 cycles of docetaxel, docetaxel 3 mg/kg i.v., antibody 30 mg/kg i.p. weekly) [%] | median survival time (primary tumor growth; in vivo) [days] | TCR (day 21) (MC38 colon carcinoma) | TGI (day 21) (MC38 colon carcinoma) [%] | TGI (day 21) (MC38 colon carcinoma; listed as IL2) [%] | Median time to progression TV > 700 mm3 (MC38 colon carcinoma) |
| --- | --- | --- | --- | --- | --- | --- | --- |
| CC(=O)O[C@@]12CO[C@@H]1C[C@H](O)[C@@]1(C)C(=O)[C@H](O)C3=C(C)[C@@H](OC(=O)[C@H](O)[C@@H](NC(=O)OC(C)(C)C)c4ccccc4)C[C@@](O)([C@@H](OC(=O)c4ccccc4)[C@H]21)C3(C)C [docetaxel] | 0.55 | 75 | 154 |  |  |  |  |
| Proleukin: IL-2 (Proleukin, Novartis) |  |  |  | 0.53 | 47 | 47 | 21 |
| O=C1[O][Pt]2([NH][C@@H]3CCCC[C@H]3[NH]2)[O]C1=O [Oxaliplatin] |  |  |  | 0.54 | 46 |  | 21 |

— US20170247459A1, “COMBINATION THERAPY OF ANTIBODIES AGAINST HUMAN CSF-1R AND USES THEREOF” (HOFFMANN-LA ROCHE INC., priority 2012, published 2017)
